{"source": "patent US20040170645A1", "about": "“Seaweed extract composition for retardation of cardiovascular disorders and preservation of healthy cardiovascular function” (priority 2002, published 2004)", "tested_on": "thrombus in the right jugular vein", "experiment": "Thrombosis test (jugular vein, formalin/methanol initiated)", "assay_type": "in vivo, rat", "details": "7.5 mg/kg oral, 4 h", "method": "One hundred and two male Wistar rats, weighing 312±64 g (±SD), were handled and housed according to the Principles of Animal Care set out by the Canadian Federation of Biological Societies. The animals were fasted overnight prior to treatment and were anaesthetized with barbital and methoxyflurane for experimental procedures.\nThe rhamnan-arginine complex was weighed fresh daily. Six to 8 rats were treated per day. […] Thus when the stomach tube was placed in the stomach the drugs were first introduced into the stomach followed by saline to give a total volume of approximately 0.4 ml. In the heparin alone group, heparin was administered in a volume of 0.1-0.2 ml followed by 0.2 ml saline. Control group was saline alone.\nThe thrombosis test was performed by a modification of the procedure by Blake et al. For animals exposed to treatment for 4 h, a thrombus was initiated in the right jugular vein by application of 10% formalin in 65% methanol to the exposed adventitial surface. Immediately following, drugs were introduced into the stomach by stomach tube. […] The clot was scored as + (hard clot) if the vessel is blocked and remained blocked despite examination with a cotton pledget. […] The thrombus was scored as − (negative) if blood was seen to flow freely in the vessel.\nThrombosis data is expressed as a percentage with 95% confidence intervals. […] Other data is expressed as mean ±SE. […]", "data": [{"substance": "Heparin", "values": [{"measurement": "incidence of hard clots", "value": "reduced the percentage of incidence of hard clots"}, {"measurement": "total incidence of thrombosis", "value": "little or no effect"}]}]}
